Assay results reported in patent publication US20230277525A1, “CONJUGATE OF FUNCTIONAL DRUG AND TOLL-LIKE RECEPTOR 7 OR 8 AGONIST OF WHICH ACTIVE SITE IS TEMPORARILY INACTIVATED AND USE THEREOF” (priority 2020, published 2023).

Experiments:
IL-6 [1] = experiment: blood inflammatory cytokine (IL-6) level after intravenous injection, AAC-001 study; format: in vivo; settings: mouse, blood collected at 0, 1, 2 and 4 hours, ELISA, FIG. 18
Procedure: To confirm the effect of the antibody-resiquimod complex (AAC-001) synthesized in the same manner as in Example 14.1 on the secretion of inflammatory cytokine in blood, after intravenously injecting the AAC-001 complex or resiquimod into a mouse, blood samples were collected at 0, 1, 2, and 4 hours. The collected blood sample was centrifuged at 10,000×g for 20 minutes to separate serum, and the concentration of IL-6, which is a representative inflammatory cytokine, present in serum was measured using the Invitrogen mouse IL-6 ELISA kit.

IL-6 [2] = experiment: blood inflammatory cytokine (IL-6) level after intravenous injection, AAC-002 study; format: in vivo; settings: mouse, two hours after intravenous injection, ELISA; FIG. 20
Procedure: To confirm the effect of the antibody-resiquimod complex (AAC-002) synthesized in the same manner as in Example 15.1 on the secretion of an inflammatory cytokine in blood, two hours after the AAC-002 complex (conjugated TLR7/8a-Blocked active site) was intravenously injected into a mouse, blood samples were collected. The collected blood sample was centrifuged at 10,000×g for 20 minutes to separate serum, and the concentration of IL-6, which is a representative inflammatory cytokine, present in serum was measured using the Invitrogen mouse IL-6 ELISA kit. As controls, a phosphate-buffered saline-injected group (Blank), a resiquimod only-injected group (Bare TLR7/8a-Uncomplexd), and a group into which an antibody-resiquimod complex in which the antibody binds to a site other than the active site, is injected (conjugated TLR7/8a-Live active site) were used for comparison.

[3] = size of complex in aqueous solution by spectroscopy; format: physicochemical; settings: in an aqueous solution; FIG. 21
Procedure: To synthesize a complex of a protein antigen, which is a type of sulfhydryl group-containing protein-based drug, and resiquimod, having a bond cleaved by cathepsin-B, first, resiquimod to which a linker binds to its active site was synthesized. In further detail, resiquimod (10 mg) and Mal-Val-Cit-PAB-PNP (47.2 mg) were added to 2 mL of N,N-dimethylformamide (DMF), and then dissolved. Afterward, N,N-diisopropylethylamine (DIPEA; 6.7 μL) and 1-hydroxybenzotriazole hydrate (1-HOBt; 315 μg) were added. Then, a mixture was prepared by stirring at room temperature for 16 hours. The OVA protein antigen (10 mg) was added to the prepared mixture and reacted, thereby preparing a complex, and then the resulting complex was purified by thin-layer chromatography, thereby preparing an OVA protein antigen-resiquimod complex having a bond cleaved by cathepsin-B. Then, the prepared complex was subjected to spectroscopy to confirm its size.

| Molecule | inflammatory cytokine (IL-6) level in serum (IL-6 [1]) | inflammatory cytokine (IL-6) level in serum (IL-6 [2]) | nanoparticle size [3] |
| --- | --- | --- | --- |
| CCOCc1nc2c(N)nc3ccccc3c2n1CC(C)(C)O [resiquimod] | promotes the secretion of inflammatory cytokines and induces a cytokine storm | remarkably increasing an inflammatory cytokine level in blood |  |
| complex of the OVA protein antigen and resiquimod, having a bond cleaved by cathepsin-B: OVA protein antigen linked to resiquimod active site via Mal-Val-Cit-PAB linker cleaved by cathepsin-B (conjugate, UniProt P01012 2-386, looked up, resiquimod via Mal-Val-Cit-PAB linker) Ovalbumin: GSIGAASMEFCFDVFKELKVHHANENIFYCPIAIMSALAMVYLGAKDSTRTQINKVVRFDKLPGFGDSIEAQCGTSVNVHSSLRDILNQITKPNDVYSFSLASRLYAEERYPILPEYLQCVKELYRGGLEPINFQTAADQARELINSWVESQTNGIIRNVLQPSSVDSQTAMVLVNAIVFKGLWEKAFKDEDTQAMPFRVTEQESKPVQMMYQIGLFRVASMASEKMKILELPFASGTMSMLVLLPDEVSGLEQLESIINFEKLTEWTSSNVMEERKIKVYLPRMKMEEKYNLTSVLMAMGITDVFSSSANLSGISSAESLKISQAVHAAHAEINEAGREVVGSAEAGVDAASVSEEFRADHPFLFCIKHIATNAVLFFGRCVSP |  |  | approximately 99.7 nm |
